Reference: PMC11274521 (Cells, 2024)
Blank lines part the entries; values can stand above or below the molecule they belong to. Ends that are not written are not given here. Peptide text beside a SMILES is read from it. * marks the point of attachment. Biotin = O=C1N[C@H]2[C@H](CS[C@H]2CCCCC(=O)*)N1; Ahx = NCCCCCC(=O)O

Tests used:
albumin (HSA, BSA, FBS) = test: Biotin pulldown of albumin; type: binding, human, bovine; conditions: 1 mM biotinylated peptide, 0.03 mM HSA, BSA or FBS, 2 h 4 °C, streptavidin resin
Protocol: For immunoprecipitation (IP), 300 µg of lysate was mixed with 5 µg of human anti-PD-1 (#AF1086, R&D) or mouse anti-PD-L1 (#PA5-20343, Invitrogen-Thermo Fisher Scientific) at 4 °C for 2 h followed by 30 min incubation with 20 µL of Pierce™ Protein A/G Magnetic Beads (ThermoFisher Scientific; catalog #88802) at room temperature followed by Western blot to detect the interacted proteins. In the biotin pulldown procedure, 1 mM biotinylated peptides were incubated with 0.03 mM of albumin (BSA, HSA, the equivalent amount FBS) for 2 h at 4 °C followed by incubating with 50 µL Streptavidin resin (Genescript, Piscataway, NJ, USA) for 1 hr at room temperature, followed by SDS-PAGE to detect the bound albumin.

[1] = mouse, in vivo
physchem = conditions: aqueous buffer
bovine serum albumin = target: T1, bovine serum albumin (bovine, UniProt P02769 25-607); test: pull-down; 1 mM biotinylated peptide with 0.03 mM albumin (HSA or BSA) for 2 h at 4 °C, then Streptavidin resin for 1 h at room temperature; bound albumin detected by SDS-PAGE; conditions: both partners purified
T1 construct: bovine serum albumin, used as BSA and as the albumin in an equivalent amount of FBS; also called BSA; albumin of fetal bovine serum (FBS); source: also as the albumin in fetal bovine serum (FBS)

human serum albumin = target: T2, human serum albumin (human, UniProt P02768 25-609); test: as above; conditions: both partners purified
T2 construct: human serum albumin (HSA); also called HSA

T1 sequence (P02769 25-607): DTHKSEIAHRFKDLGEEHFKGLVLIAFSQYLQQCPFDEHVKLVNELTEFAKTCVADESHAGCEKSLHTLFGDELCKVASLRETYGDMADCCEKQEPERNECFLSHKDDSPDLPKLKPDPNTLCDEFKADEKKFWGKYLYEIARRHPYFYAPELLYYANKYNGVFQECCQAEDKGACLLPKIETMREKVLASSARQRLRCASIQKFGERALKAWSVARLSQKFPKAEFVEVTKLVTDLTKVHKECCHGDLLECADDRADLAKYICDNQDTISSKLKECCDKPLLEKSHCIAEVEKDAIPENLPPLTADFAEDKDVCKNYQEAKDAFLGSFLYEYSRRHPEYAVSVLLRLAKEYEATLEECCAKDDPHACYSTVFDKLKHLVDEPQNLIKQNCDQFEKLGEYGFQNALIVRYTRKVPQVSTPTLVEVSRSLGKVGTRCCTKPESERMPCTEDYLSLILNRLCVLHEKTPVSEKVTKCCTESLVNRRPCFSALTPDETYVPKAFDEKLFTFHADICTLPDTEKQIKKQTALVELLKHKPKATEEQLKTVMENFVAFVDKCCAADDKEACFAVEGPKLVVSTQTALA

Molecule: REEKLFNVTSNLRINT-NH2 [L7N]
Toxicity to cells (cells): no significant toxicity
Immune reactions of mice [1]: adverse immune reactions

Molecule: REEKLFNVTSTLRINT-NH2 [L7]
solubility (physchem): < 10000 µg/mL

Now from value to molecule:

Binding to albumin (pulldown, SDS-PAGE) (albumin (HSA, BSA, FBS)): no binding
Molecule: CC[C@H](C)[C@H](NC(=O)[C@H](CCCNC(=N)N)NC(=O)[C@H](CC(C)C)NC(=O)[C@H](CC(N)=O)NC(=O)[C@H](CO)NC(=O)[C@@H](NC(=O)[C@@H](NC(=O)[C@H](CC(N)=O)NC(=O)[C@H](Cc1ccccc1)NC(=O)[C@H](CC(C)C)NC(=O)[C@H](CCCCN)NC(=O)[C@H](CCC(=O)O)NC(=O)[C@H](CCC(=O)O)NC(=O)[C@H](CCCNC(=N)N)NC(=O)CCCCCNC(=O)[C@H](CCC(=O)O)NC(=O)[C@H](Cc1ccc(O)cc1)NC(=O)[C@H](CCC(=O)O)NC(=O)[C@H](CCCCN)NC(=O)[C@H](CCC(=O)O)NC(=O)[C@H](Cc1ccc(O)cc1)NC(=O)[C@H](CCC(=O)O)NC(=O)CCCCCNC(=O)CCCC[C@@H]1SC[C@@H]2NC(=O)N[C@@H]21)C(C)C)[C@@H](C)O)C(=O)N[C@@H](CC(N)=O)C(=O)N[C@H](C(N)=O)[C@@H](C)O [Biotin-EYEKEYE-L7N]

Binding to albumin (pulldown, SDS-PAGE) (albumin (HSA, BSA, FBS)): no binding
Molecule: CC[C@H](C)[C@H](NC(=O)[C@H](CCCNC(=N)N)NC(=O)[C@H](CC(C)C)NC(=O)[C@H](CC(N)=O)NC(=O)[C@H](CO)NC(=O)[C@@H](NC(=O)[C@@H](NC(=O)[C@H](CC(N)=O)NC(=O)[C@H](Cc1ccccc1)NC(=O)[C@H](CC(C)C)NC(=O)[C@H](CCCCN)NC(=O)[C@H](CCC(=O)O)NC(=O)[C@H](CCC(=O)O)NC(=O)[C@H](CCCNC(=N)N)NC(=O)CCCCCNC(=O)CCCC[C@@H]1SC[C@@H]2NC(=O)N[C@@H]21)C(C)C)[C@@H](C)O)C(=O)N[C@@H](CC(N)=O)C(=O)N[C@H](C(N)=O)[C@@H](C)O [Biotin-L7N] ({Biotin-Ahx}-REEKLFNVTSNLRINT-NH2)

binding result (bovine serum albumin): binds
binding result (human serum albumin): binds
B1: Biotin-PA-scramble (peptide)
peptide: EYEKEYETKLREIFVNLRTNSEN
modifications: biotin-ahx at the N-terminus; palmitic acid on the Lys side chain of EYEKEYE; ahx (6-aminohexanoic acid) between EYEKEYE and the peptide
notes: peptide tag that carries palmitic acid on its Lys; also called biotin–PA–scrambled peptide; PA-coupled scramble peptide; source: synthetic peptide (Fmoc chemistry); not shown: biotin, N-terminal, kept
